# Paper PMC3183106 (Pharmacological research : the official journal of the …, 2011)
# Like-named read-outs stand apart in the source and are kept apart here.
# How the values were obtained:
# [1] = cited from earlier work
# [2] = mean ± SEM
# [3] = mean ± SEM; remark: listed apart in the source
# [4] = human, in vivo
# [5] = cited from earlier work; remark: listed apart in the source
smiles,measurement,setting,value
CC(C)=CCC/C(C)=C/C=C/C(C)=C/C=C/C(C)=C/C=C/C=C(C)/C=C/C=C(C)/C=C/C=C(\C)CCC=C(C)C [Lycopene],Increase in serum concentrations,[1]; heat processed tomato juice,2–3 fold
same,Change in serum concentrations,[1]; unprocessed tomato juice,no change
"CSCCCCNC(=S)SC[C@H](N)C(=O)NCC(=O)O [ERN-CG, ERN-cysteinylglycine]",Percent of metabolite relative to total for respective ITC in the plasma,"[2]; 12 hrs after broccoli sprouts, GSTP1 A/A (n=7)",69.4 ± 1.38%
same,Percent of metabolite relative to total for respective ITC in the plasma,"[2]; 12 hrs after broccoli sprouts, GSTP1 A/G (n=5)",67.6 ± 1.19%
same,Percent of metabolite relative to total for respective ITC in the plasma,"[2]; 12 hrs after broccoli supplement, GSTP1 A/A (n=7)",72.9 ± 1.78%
same,Percent of metabolite relative to total for respective ITC in the plasma,"[2]; 12 hrs after broccoli supplement, GSTP1 A/G (n=5)",75.1 ± 1.44%
same,Percent of metabolite relative to total metabolites for respective ITC in urine,"[3]; first 12 hrs after broccoli sprouts, GSTP1 A/A (n=7)",0.11 ± 0.01%
same,Percent of metabolite relative to total metabolites for respective ITC in urine,"[3]; first 12 hrs after broccoli sprouts, GSTP1 A/G (n=5)",0.12 ± 0.04%
same,Percent of metabolite relative to total metabolites for respective ITC in urine,"[3]; first 12 hrs after broccoli supplement, GSTP1 A/A (n=7)",0.89 ± 0.31%
same,Percent of metabolite relative to total metabolites for respective ITC in urine,"[3]; first 12 hrs after broccoli supplement, GSTP1 A/G (n=5)",2.00 ± 0.77%
"C[S+]([O-])CCCCN=C=S (stereo not shown) [SFN, sulforaphane]",Time by which total metabolites almost completely cleared from the plasma,[4],≤ 24 h
same,SFN recovered after consumption,[5]; broccoli powder,19%
same,SFN recovered after consumption,[5]; broccoli sprouts,74%
